From patent publication US11191801B2, “Pharmaceutical composition for preventing or treating diabetic complications and angioedema, containing natural mixture extract as active ingredient” (KOREA INSTITUTE OF ORIENTAL MEDICINE, priority 2014, dated 2021)
Several values for one entry are separate records, joined by “and”; a condition that tells them apart may be missing. Equal entries are not always repeated.

How the values were obtained:
[1] = tested on: human retinal pigment epithelial cell line (ARPE-19); conditions: Molecular Vision 2011; 17: 3512-3522; cited from earlier work
MNU-induced C57BL/6 mice = experiment: MNU-induced macular degeneration model, extracts versus paeoniflorin: thickness of outer nuclear layers; type: in vivo; conditions: for Thickness of outer nuclear layer (AU): orally
Experimental: 6-week-old male C57BL/6 mice were used after purification thereof for one week. In order to induce damage and denaturation of photoreceptor cells, among morphological changes of retinal tissues which appeared in macular degeneration, 1% (0.05% acetic acid) N-methyl-N-nitrosourea (MNU, Sigma, USA) was intraperitoneally injected to the 7-week-old male C57BL/6 mice at a concentration of 60 mg/kg. The same amount of 0.05% acetic acid was intraperitoneally administered to the normal group. As the samples, CMO4 (100 mg/kg), which is the extract of cinnamon twig and moutan root bark (1:8), and CPA4 (100 mg/kg), which is the extract of cinnamon twig and peony root (1:8), paeoniflorin −2.7 (2.7 mg/kg), and paeoniflorin −12.3 (12.3 mg/kg) were suspended and prepared in 0.5% CMC and administered orally once before the MNU administration day. After administration of MNU, these resultants were orally administered once a day for seven days, respectively. In the normal and MNU-induced groups, the same amount of 0.5% CMC was orally administered.
Change in a thickness of outer nuclear layers caused by damage to photoreceptor cells in retinal nerve tissues was confirmed.
Specifically, experimental groups in which the samples were treated in the same manner as Experimental Example 8-1 were autopsied after the administration, and eyeballs were enucleated. Thereafter, the enucleated eyeballs were fixed in 10% neutralized formalin for one day, and embedded with paraffin to prepare slide sections. The slide sections were stained with H&E and observed under an optical microscope.

[2] = tested on: advanced glycation end-products (AGEs); experiment: Inhibition of producing advanced glycation end-products (AGEs) in vitro (BSA with fructose/glucose, fluorescence); type: biochemical; conditions: BSA 10 mg/mL, 0.2 M fructose and 0.2 M glucose, 37° C., seven days
Experimental: Specifically, 10 mg/mL of bovine serum albumin (BSA, Sigma, USA) dissolved in 50 mM phosphate buffer (pH 7.4) was used as a protein source, and the solution mixed with 0.2 M fructose and 0.2 M glucose was used as a sugar source. The extracts of Examples and aminoguanidine (positive control group) were dissolved in 0.2% dimethylsulfoxide (DMSO), followed by dissolving again in 15% tween 80. The thus-prepared protein source, sugar source, and extracts were mixed, prepared at 1 mL in total, cultured at 37° C. for seven days, and allowed to undergo glycation. Herein, 0.02% sodium azide, an antibacterial agent, was added to prevent bacterial production. After cultivation, the fluorescence was measured at an absorption wavelength of 350 nm and an emission wavelength of 450 nm using a spectrofluorometric detector (Bio-TEK, USA).

db/db mice [3] = experiment: Therapeutic model with metformin co-administration: damage to blood-retinal barrier; type: in vivo; conditions: metformin 350 mg/kg/day alone
Experimental: In addition, 50 mg/mL of fluorescein-dextran (2×10^6 molecular weight) which was prepared by dissolving in sterilized PBS (1 mL) was injected into the left ventricle. After 10 minutes, the eyeballs were enucleated, and the left eyeball was placed in an eyecup. The separated retina was placed on a slide, and then mounted using aqueous mounting medium. After this was sufficiently dried, a fluorescence microscope was used to observe the same. The results were confirmed at 12 weeks, 18 weeks, and 24 weeks of inducing diabetes, respectively.

claudin-5 and occludin = experiment: Therapeutic model with metformin co-administration: damage to tight-junction proteins; type: in vivo, mice; conditions: metformin 350 mg/kg/day alone
Experimental: In addition, the resultant was dehydrated and substituted three times with xylene, thereby embedding the same with paraffin. Blocks of the embedded tissue were prepared as serial sections in a thickness of 4 μm, and placed on slides for use. In order to remove an endogenous peroxidase activity, a slide which underwent deparaffinization and function processes was allowed to react with 3% hydrogen peroxide solution for 10 minutes, and then washed three times with PBS containing 0.05% tween 20. […] Thereafter, the diluted primary antibodies were treated for one hour or overnight. After washing with PBS for one hour, a labeled streptoavidin biotin (LSAB) kit (Dako, USA) was applied to the resultants, developed with DAB, and then observed using an optical microscope. […] Thereafter, the resultants were stained with DAPI and observed using a fluorescence microscope.

db/db mice [4] = experiment: Therapeutic model with metformin co-administration: formation of acellular capillaries; type: in vivo; conditions: metformin 350 mg/kg/day alone
Experimental: Specifically, eyeballs were enucleated from mice in the same manner as Experimental Example 6-2, and retinas were enucleated from the eyeballs and washed with running water. Thereafter, they were placed in 3% trypsin and cultured at 37° C. for one hour. The digested retinas were transferred to PBS, and the internal membrane (membrane of organelle present in cells) was removed. The vascular frame was separated from the retinal background using a glass rod, placed on a slide, and dried. The dried vascular frame was then stained with PAS and hematoxylin, and variations in cell walls and nuclei were confirmed.

[5] = molecular target: T1, cross-link between AGE-BSA and collagen (Bos taurus, UniProt P02769); experiment: Fragmentizing cross-link of advanced glycation end-products (AGE-BSA/collagen ELISA); type: biochemical; conditions: AGE-BSA cross-linked to collagen, 37° C., four hours
T1 construct: purchased Transgenic Inc. Kobe, Japan (AGE-BSA); Greiner Bio-One, Germany (collagen-coated plate)
T1 sequence (P02769 25-607): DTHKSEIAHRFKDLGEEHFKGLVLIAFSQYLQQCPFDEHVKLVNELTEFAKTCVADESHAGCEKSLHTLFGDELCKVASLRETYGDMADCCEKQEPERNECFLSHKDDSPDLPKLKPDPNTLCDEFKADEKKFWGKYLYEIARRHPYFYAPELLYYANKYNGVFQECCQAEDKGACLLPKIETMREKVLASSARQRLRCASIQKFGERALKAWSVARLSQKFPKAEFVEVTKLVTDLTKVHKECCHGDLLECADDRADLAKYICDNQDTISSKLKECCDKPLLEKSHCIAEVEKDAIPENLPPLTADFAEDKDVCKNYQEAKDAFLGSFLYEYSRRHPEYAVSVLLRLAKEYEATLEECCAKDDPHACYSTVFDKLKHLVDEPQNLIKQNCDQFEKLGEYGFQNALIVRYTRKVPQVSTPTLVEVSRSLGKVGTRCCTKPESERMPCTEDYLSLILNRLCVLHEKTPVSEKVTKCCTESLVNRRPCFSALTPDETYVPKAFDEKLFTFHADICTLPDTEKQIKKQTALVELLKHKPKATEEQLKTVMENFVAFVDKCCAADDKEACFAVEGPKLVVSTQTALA
Experimental: Specifically, 1.0 μg of AGE-BSA (Transgenic Inc. Kobe, Japan) was dispensed into a collagen-coated 96-well microtiter plate (Greiner Bio-One, Germany) and cultured at 37° C. for four hours, and then the AGE-BSA and collagen were allowed to cross-link. After washing the resultant three times with PBST (0.05%) to remove AGE-BSA not linked, a mixed extract and ALT-711 were added, and cultured at 37° C. for four hours. Thereafter, the resultant was washed with PBST (0.05%), and in order to detect the AGE-BSA remaining due to the cross-link to collagen, mouse monoclonal anti-AGE-BSA antibodies (6D12, Transgenic Inc. Kobe, Japan) were diluted at 1:250 and dispensed, followed by cultivation at 37° C. for one hour. After one hour, the resultant was washed with PBST (0.05%) and reacted with HRP-linked goat anti-mouse IgG antibodies (Santa Cruz, USA) to develop TMB (3.3′,5,5′-tetramethylbenzidine) as a substrate. Thereafter, absorbance was measured at 450 nm. The cross-link fragmentation effect (%) of AGE-BSA was calculated as shown in the following Equation 2.

C[C@@]12C[C@@]3(O)O[C@@H](O1)[C@]1(COC(=O)c4ccccc4)[C@H]3C[C@@]12O[C@@H]1O[C@H](CO)[C@@H](O)[C@H](O)[C@H]1O [paeoniflorin]
apoptosis caused by H2O2 [1]: inhibitory effect on apoptosis | Thickness of outer nuclear layer (AU) (MNU-induced C57BL/6 mice; Table 4: CMO4 100 mg/kg, paeoniflorin 2.7 mg/kg, NOR 1.99, MNU 1.23, listed as PF-2.7): 1.23±0.21 AU | Thickness of outer nuclear layer (AU) (MNU-induced C57BL/6 mice; Table 5: CPA4 100 mg/kg, paeoniflorin 12.4 mg/kg, NOR 1.99, MNU 0.92, listed as PF-12.4): 1.11±0.19 AU | Thickness of outer nuclear layer (%) (MNU-induced C57BL/6 mice; Table 5: CPA4 100 mg/kg, paeoniflorin 12.4 mg/kg, NOR = 100, MNU = 0.57, listed as PF-12.4): 17.5% and 17.46 ± 17.39%

N=C(N)NN [AG, aminoguanidine]
IC50 (μg/mL), inhibition of production of advanced glycation end-products [2]: 82.50 ± 1.10 µg/mL

CN(C)C(=N)N=C(N)N [metformin]
outflow of fluorescent substances (db/db mice [3]; at 18 weeks): significantly reduced | outflow of fluorescent substances (db/db mice [3]; at 24 weeks): not prevented | amount of occludin (western blot) (claudin-5 and occludin): no significant increase | claudin-5 loss (staining) (claudin-5 and occludin): snapped in various regions of blood vessels | formation of acellular capillaries (db/db mice [4]): could not prevent the proliferation

Cc1sc[n+](CC(=O)c2ccccc2)c1C.[Cl-] [ALT-711]
IC50 (μg/mL), cross-link fragmentation effect of AGE-BSA [5]: 17,060 ± 2.35 μg/mL
